Data published in US7262189B2, “Benzothiazine and benzothiadiazine derivatives, method for preparing same and pharmaceutical compositions containing same” (Les Laboratoires Server, priority 2001, dated 2007).
Read-outs that look alike come from different tables or passages of the source.

Test system: AMPA receptors
Test: Excitatory fluxes induced by AMPA in Xenopus oocytes (2-electrode voltage-clamp)
Format: cell-based
Conditions: Xenopus oocytes injected with rat cerebral cortex poly-(A+) mRNA, AMPA 10 μM
Method: Study of the Excitatory Fluxes Induced by AMPA in Xenopus oocytes
mRNAs are prepared from cerebral cortex of male Wistar rat by the guanidinium thiocyanate/phenol/chloroform method. The poly-(A^+) mRNAs are isolated by chromatography on oligo-dT cellulose and injected in an amount of 50 ng per oocyte. The oocytes are left to incubate for 2 to 3 days at 18° C. to allow expression of the receptors and are then stored at from 8 to 10° C.
Electrophysiological recording is carried out in a Plexiglass® chamber at from 20 to 24° C. in OR2 medium (J. Exp. Zool., 1973, 184, 321-334) by the 2-electrode “voltage-clamp” method, a 3rd electrode being placed in the bath to serve as reference.
All the compounds are administered via the incubation medium and the electric current is measured at the end of the period of administration. AMPA is used at a concentration of 10 μM. For each compound studied, the concentration that doubles (EC2×) or quintuples (EC5×) the intensity of the current induced by AMPA alone (5 to 50 nA) is determined.

**Q.** What does the source list for `O=S1(=O)NC2CCCN2c2ccc(OC(=S)Oc3ccccc3)cc21` (centres unmarked) [Example 2, O-(5,5-Dioxido-2,3,3a,4-tetrahydro-1H-pyrrolo[2,1-c][1,2,4]-benzothiadiazin-7-yl)O-phenyl thiocarbonate]?
**A.** Concentration doubling (EC2×) or quintupling (EC5×) the AMPA current (read-out: EC2× (concentration that doubles the intensity of the current induced by AMPA alone)): 1.8 µM; Concentration doubling (EC2×) or quintupling (EC5×) the AMPA current (read-out: EC5× (concentration that quintuples the intensity of the current induced by AMPA alone)): 9.6 µM
